Measured values from patent publication US6406679B1, “Use of HL-60-related lectins in drug delivery and detection of lectin-expressing cells” (Incyte Pharmaceuticals, Inc., priority 1992, dated 2002).

Columns and labels:
SJL/J mice = assay: EAE relapse murine model; type: in vivo, mouse; details: 50 μg i.v. days 13 and 15, 100 μg i.v. daily days 18-24, FIG. 13
Text: In mice, symptoms of EAE can be made to occur in cyclical fashion by boosting the animals with antigen following each cycle, and each cycle becomes more severe until death ultimately occurs. This is a useful model in which to determine therapeutic efficacy, since it closely mimics both the chronic disease relapses and the acute demyelination associated with multiple sclerosis. In this experiment, 20 female SJL/J mice were immunized with lyophilized spinal cord extract dissolved in PBS plus CFA on days 0, 7 and 21. Ten mice were injected with recombinant lectin, and ten mice were given buffer only. The lectin-treated mice received 50 μg lectin on days 13 and 15 intravenously in the tail vein, and an additional 100 μg i.v. daily from day 18 through day 24. Mice were followed until death or sacrifice at day 42.
The results in FIG. 13 are mean clinical scores for control and lectin-treated mice.

lymph node cells = assay: In vivo effect of lectin on phenotypes of lymphocytes (antibody staining); set-up: species or system rat; details: for % positive / F^L / % CHANGE IN POSITIVES: Lymph Node Cells
T-cell lines = assay: Selection of GPBP-specific T-cell lines from draining lymph nodes; type: in vivo, rat; details: lectin-treated rats
Text: In a follow-up experiment, T-cell lines were selected from the draining lymph nodes.

rats = assay: Skin allograft, single grafts (FIG. 14); type: in vivo, rat; details: 5 mg/kg recombinant lectin
Procedure: In this experiment, 5 mg/kg recombinant lectin was used on rats bearing single grafts and the day of graft rejection was noted.

rat lymphocytes = assay: Binding to sections of lymphoid organs (lymph nodes and Peyer's patch); type: cell-based; details: control level binding very low, result cannot be relied on
Procedure: Sections of lymphoid organs (lymph nodes and Peyer's patch) were tested as above.

BALB/c mice = assay: B-cell repertoire: hybridoma clones producing antibodies against the immunizing antigen; type: in vivo, mouse; details: for Number of Clones Producing Antibodies: 180 primary clones; for Experimental % of Control: clones with lectin vs antigen only
Procedure: The effect of the recombinant lectin on B-cell activation in BALB/c mice was also assayed using standard assays determining the number of hybridomas secreting antibodies to the administered antigen.
Three BALB/c female mice (7-8 weeks old) were injected intraperitoneally with 5 μg of […], tetanus toxoid or pneumococcal polysaccharide, respectively, in complete Freund's adjuvant. Two weeks later, the mice were injected intravenously with the same amount of antigen in 0.15 M sodium phosphate buffer, pH 7.4. […]. A mixture of capsular polysaccharide extracts from 23 different serotypes of Streptococcus pneumoniae (Pneumovax®) was obtained from Merck Sharp & Dohme, Inc. (West Point, Pa.). Three other mice of the same strain were similarly immunized with these antigens in combination with 15 μg of the recombinant lectin; controls received only the antigens.
The animals were sacrificed 4 days after the booster injection and spleen cells (10^8 cells) were fused with the nonsecreting B-lymphocytoma cell line SP2-OAg14 (2×10^7 cells). The cell mixture was distributed in 6×96 Costar tray wells (2×10^5 cells/well) with a feeder layer of mouse peritoneal macrophages (5×10^5 cells/well). From the third day in culture HAT (hypoxanthine-aminopterin-thymidine) medium was added. After 10-14 days, supernatants were assayed for binding to the respective antigens used for immunization using an enzyme-linked immunosorbent assay (ELISA).

Human blood cells = assay: Staining of lectin-pretreated human blood cells with fluoresceinated antibodies (histogram analyses); type: cell-based
Text: Human blood cells were pretreated with the inventive HL-60 lectin and then stained with fluoresceinated antibody having several different specificities. Control cells were not pretreated with lectin. […] However, the effect of lectin treatment on M1 and M3 macrophages was significant.

[1] = antibody IgG, lectin-treated rats
[2] = HLA-DR, lectin-pretreated cells
[3] = NK(L-A), lectin-pretreated cells

**Q.** For “Lectin: Soluble 14 kD β-galactoside-binding HL-60/placenta lectin of FIG. 1 (SEQ ID NO:2), prepared recombinantly in E. coli”, which “mean clinical scores, first cycle” value (SJL/J mice) is on record?
**A.** improved clinical scores

**Q.** And the “survival and clinical scores, second cycle” value (SJL/J mice)?
**A.** improved survival and clinical scores

**Q.** And the “% positive” value (lymph node cells; antibody 0X6)?
**A.** 10.0%

**Q.** And the “F^L” value (lymph node cells; antibody 0X6)?
**A.** 1208

**Q.** And the “% CHANGE IN POSITIVES” value (lymph node cells; antibody 0X6, lectin vs control)?
**A.** 0%

**Q.** What about the “% positive” value (lymph node cells; antibody 0X8) of the same substance?
**A.** 30.3%

**Q.** What about the “F^L” value (lymph node cells; antibody 0X8 (suppressor T-cells)) of the same substance?
**A.** 472

**Q.** And the “% CHANGE IN POSITIVES” value (lymph node cells; antibody 0X8, lectin vs control)?
**A.** +28%

**Q.** What about the “% positive” value (lymph node cells; antibody 0X12) of the same substance?
**A.** 9.9%

**Q.** And the “F^L” value (lymph node cells; antibody 0X12)?
**A.** 316

**Q.** And the “% CHANGE IN POSITIVES” value (lymph node cells; antibody 0X12, lectin vs control)?
**A.** 0%

**Q.** What about the “% positive” value (lymph node cells; [1]) of the same substance?
**A.** 16.4%

**Q.** What about the “F^L” value (lymph node cells; [1]) of the same substance?
**A.** 129

**Q.** And the “% positive” value (lymph node cells; antibody W3/13)?
**A.** 99.5%

**Q.** What about the “F^L” value (lymph node cells; antibody W3/13 (total T-cells)) of the same substance?
**A.** 442

**Q.** And the “% CHANGE IN POSITIVES” value (lymph node cells; antibody W3/13, lectin vs control)?
**A.** 0%

**Q.** What about the “% positive” value (lymph node cells; antibody W3/25) of the same substance?
**A.** 76.5%

**Q.** What about the “F^L” value (lymph node cells; antibody W3/25 (helper T-cells)) of the same substance?
**A.** 230

**Q.** What about the “% CHANGE IN POSITIVES” value (lymph node cells; antibody W3/25, lectin vs control) of the same substance?
**A.** −0%

**Q.** What about the “increase in the number of rat lymph node suppressor T-cells (0X8 reactive)” value (lymph node cells; lectin-treated animals) of the same substance?
**A.** 28%

**Q.** What about the “GPBP-specific T-cell lines from draining lymph nodes” value (T-cell lines) of the same substance?
**A.** no lines could be established

**Q.** What about the “rejection of the skin allograft” value (rats) of the same substance?
**A.** considerably delayed

**Q.** And the “Effect on binding of rat lymphocytes to lymphoid organ sections” value (rat lymphocytes)?
**A.** no noticeable effect

**Q.** And the “Number of Clones Producing Antibodies” value (BALB/c mice; Pneumococcal polysaccharide + 15 μg lectin)?
**A.** 111

**Q.** What about the “Experimental % of Control” value (BALB/c mice; Pneumococcal polysaccharide) of the same substance?
**A.** 78%

**Q.** And the “Number of Clones Producing Antibodies” value (BALB/c mice; Tetanus toxoid + 15 μg lectin)?
**A.** 79

**Q.** And the “Experimental % of Control” value (BALB/c mice; Tetanus toxoid)?
**A.** 48%

**Q.** And the “Number of Clones Producing Antibodies” value (BALB/c mice; Torpedo receptor + 15 μg lectin)?
**A.** 54

**Q.** What about the “Experimental % of Control” value (BALB/c mice; Torpedo receptor) of the same substance?
**A.** 41%

**Q.** And the “+FL1” value (Human blood cells; CD3+, lectin-pretreated cells)?
**A.** 458

**Q.** What about the “+mode” value (Human blood cells; CD3+, lectin-pretreated cells) of the same substance?
**A.** 416

**Q.** What about the percent (Human blood cells; CD3+, lectin-pretreated cells) of the same substance?
**A.** 77.8%

**Q.** And the “+FL1” value (Human blood cells; CD4+, lectin-pretreated cells)?
**A.** 181.5

**Q.** And the “+mode” value (Human blood cells; CD4+, lectin-pretreated cells)?
**A.** 151

**Q.** What about the percent (Human blood cells; CD4+, lectin-pretreated cells) of the same substance?
**A.** 46.4%

**Q.** What about the “+FL1” value (Human blood cells; [2]) of the same substance?
**A.** 614

**Q.** And the “+mode” value (Human blood cells; [2])?
**A.** 432

**Q.** What about the percent (Human blood cells; [2]) of the same substance?
**A.** 13.3%

**Q.** And the “+FL1” value (Human blood cells; M1, lectin-pretreated cells)?
**A.** 403

**Q.** What about the “+mode” value (Human blood cells; M1, lectin-pretreated cells) of the same substance?
**A.** 387

**Q.** And the percent (Human blood cells; M1, lectin-pretreated cells)?
**A.** 46.1%

**Q.** What about the “reduction of the percent of positive cells” value (Human blood cells; M1 macrophages, lectin vs control) of the same substance?
**A.** 33%

**Q.** What about the “+FL1” value (Human blood cells; M3, lectin-pretreated cells) of the same substance?
**A.** 549

**Q.** And the “+mode” value (Human blood cells; M3, lectin-pretreated cells)?
**A.** 517

**Q.** What about the percent (Human blood cells; M3, lectin-pretreated cells) of the same substance?
**A.** 45.1%

**Q.** And the “reduction of the percent of positive cells” value (Human blood cells; M3 macrophages, lectin vs control)?
**A.** 26%

**Q.** What about the “+FL1” value (Human blood cells; [3]) of the same substance?
**A.** 106

**Q.** And the “+mode” value (Human blood cells; [3])?
**A.** 94.7

**Q.** And the percent (Human blood cells; [3])?
**A.** 10.8%

**Q.** What about the “changes for CD3+, CD4+, NK(L-A) or HLA-DR cell markers” value (Human blood cells; lectin vs control) of the same substance?
**A.** No significant changes
